Each structure is given as a SMILES string.

Data set [1] can be described thus: Half life in human at 200 mg. The class given is ADME.
Data set [2] can be described thus: Half life in human at 5 mg administered three times in a day. The note with it: in vivo. The class given is ADME.
Data set [3] is described as follows: Half life in human at 150 mg. The class given is ADME.
A short description of data set [4]: Half life in human at 300 mg bid. It counts as ADME. The note with it: in vivo.
Data set [5] in a line: Half life in human at 75 mg. It counts as ADME.
A short description of data set [6]: Half life in human at 1 to 6 mg. It counts as ADME.
Data set [7] is described as follows: Half life in human at 1 to 2 mg. It counts as ADME.
Data set [8] can be described thus: Half life in human at 1 to 3 mg. The class given is ADME.
The nature of data set [9]: Half life in human at 1 mg. The class given is ADME.
Data set [10] is described as follows: Half life in human at 20 mg. It counts as ADME.
The nature of data set [11]: Half life in human up to 3600 mg. It counts as ADME.
A short description of data set [12]: Half life in human. It counts as ADME.
Data set [13] is described as follows: Half life in human at 20 to 50 mg. It counts as ADME.
Data set [14] in a line: Half life in human at 18 to 36 mg. It counts as ADME.
Data set [15] can be described thus: Half life in human at 25 to 400 mg.
Data set [16] is described as follows: Oral bioavailability in human. The class given is ADME, organism-based. The following applies: in vivo.
Data set [17] can be described thus: Half life in human at 8 mg treated 30 mins before bedtime. The class given is ADME. The note with it: in vivo.
Data set [18] can be described thus: Half life in human at 2250 mg administered as two doses. The note with it: in vivo. The class given is ADME.
The nature of data set [19]: Half life in human at 75 to 300 mg. It counts as ADME.
Data set [20] can be described thus: Half life in human at 5 to 20 mg. The class given is ADME.
The nature of data set [21]: Half life in human at 5 to 10 mg. The class given is ADME.

On to `NC(=O)C[S@+]([O-])C(c1ccccc1)c1ccccc1` [(S)-MODAFINIL], for which the half-life in data set [1] is 4 h. Molecule `NC[C@H](CC(=O)O)c1ccc(Cl)cc1` [ARBACLOFEN] registered a half-life in data set [2] of 2 to 4 h. For `NC(=O)C[S@@+]([O-])C(c1ccccc1)c1ccccc1` [ARMODAFINIL], the half-life in data set [1] and in data set [3] was 15 h throughout. `CC[C@H]1OC(=O)[C@H](C)[C@@H](O[C@H]2C[C@@](C)(OC)[C@@H](O)[C@H](C)O2)[C@H](C)[C@@H](O[C@@H]2O[C@H](C)C[C@H](N(C)C)[C@H]2O)[C@](C)(OC)C[C@@H](C)C(=O)[C@H](C)[C@@H](O)[C@]1(C)O` [CLARITHROMYCIN] displayed a half-life in data set [4] of 5 to 7 h. On to `CN(C)CC(c1ccc(O)cc1)C1(O)CCCCC1` (stereo unspecified) [DESVENLAFAXINE], for which the half-life in data set [5] is 11 h.

The molecule `CN(C)CC/C=C1\c2ccccc2COc2ccccc21` [E-DOXEPIN] showed a half-life in data set [6] of 8 to 24 h. For `Clc1ccc2c(c1)C(c1ccccc1)=NCc1nncn1-2` [ESTAZOLAM], the half-life in data set [7] was in the range of 10 to 24 h.

`CN1CCN(C(=O)O[C@H]2c3nccnc3C(=O)N2c2ccc(Cl)cn2)CC1` [ESZOPICLONE] gave a half-life in data set [8] of 6 h. The molecule `CCOC(=O)c1ncn2c1CN(C)C(=O)c1cc(F)ccc1-2` [FLUMAZENIL] had a half-life in [9] of 0.6 to 1.2 h. With `CNCCC(Oc1ccc(C(F)(F)F)cc1)c1ccccc1` (stereo unspecified) [FLUOXETINE], the half-life in data set [10] fell in the range of 24 to 96 h. Take `NCC1(CC(=O)O)CCCCC1` [GABAPENTIN]: the half-life in data set [11] lay within 5 to 7 h. As to `OC1(c2ccc(Cl)cc2)c2ccccc2C2=NCCN21` (stereo unspecified) [MAZINDOL], the half-life in data set [8] was in the range of 10 to 13 h. `COC(=O)C(c1ccccc1)C1CCCCN1` (stereo unspecified) [METHYLPHENIDATE] gave a half-life in data set [10] of 2 h.

`NCCC(Oc1ccc(C(F)(F)F)cc1)c1ccccc1` (stereo unspecified) [NORFLUOXETINE]: the half-life in [12] was 360 to 408 h. In turn, `COc1ccc2[nH]cc(CCNC(=O)c3cc(=O)cco3)c2c1` [PIROMELATINE] gave a half-life in data set [13] of 1 to 3 h. `Clc1ccc(CCCOCCCN2CCCCC2)cc1` [PITOLISANT] showed a half-life in data set [14] of 10 h. Molecule `OCCOCCN1CCN(C2=Nc3ccccc3Sc3ccccc32)CC1` [QUETIAPINE] had a half-life in [15] of 6 h.

In [16], `CCC(=O)NCC[C@@H]1CCc2ccc3c(c21)CCO3` [RAMELTEON] had a bioavailability of 1.8%. Also, in [17], the half-life fell in the range of 1 to 2.6 h. In data set [18], `O=C([O-])CCCO.[Na+]` [SODIUM OXYBATE] showed a half-life of 0.6 h.

Molecule `NC(=O)OC[C@H](N)Cc1ccccc1` [SOLRIAMFETOL] registered a half-life in data set [19] of 6 to 8 h. Regarding `Cc1ccc(-n2nccn2)c(C(=O)N2CCN(c3nc4cc(Cl)ccc4o3)CC[C@H]2C)c1` [SUVOREXANT], the half-life in data set [20] lay within 9 to 13 h. Molecule `CCC(=O)NC[C@@H]1C[C@H]1c1cccc2c1CCO2` [TASIMELTEON] displayed a half-life in data set [10] of 0.9 to 1.7 h. Turning to `COc1ccc(C(CN(C)C)C2(O)CCCCC2)cc1` (stereo unspecified) [VENLAFAXINE], in [5], the half-life is 5 h. In the case of `Cc1ccc(-c2nc3ccc(C)cn3c2CC(=O)N(C)C)cc1` [ZOLPIDEM], the half-life in data set [21] lay in the range of 1.4 to 4.5 h.
